Reference: paper PMC6017928, “Informing Efforts to Develop Nitroreductase for Amine Production” (Molecules : A Journal of Synthetic Chemistry and Natural …, 2018)

Assays:
[1] = target: T1, MsPnbA (Mycolicibacterium smegmatis, UniProt A0R6D0); assay: NADH oxidation, initial rates in microtiter plate; Michaelis-Menten fit; assay type: biochemical; details: NADH co-substrate, 25 °C; only normalised kcat/KM used in text
T1 construct: gene nfnB; C-terminal poly-His tag; E. coli BL21(DE3), pET-28a; Ni-NTA, FMN-reconstituted

[2] = target: T2, StNfsB (Salmonella enterica, UniProt P15888); assay: NADH oxidation at […] nm; Michaelis-Menten fit; assay type: biochemical; details: 0.5 mM NADH, 25 °C
T2 construct: gene nfsB; full length, 217 residues; untagged purification (ammonium sulfate, DEAE, Sephacryl); E. coli BL21(DE3), pET-28a; FMN-reconstituted; homodimer
T2 sequence (P15888 1-217): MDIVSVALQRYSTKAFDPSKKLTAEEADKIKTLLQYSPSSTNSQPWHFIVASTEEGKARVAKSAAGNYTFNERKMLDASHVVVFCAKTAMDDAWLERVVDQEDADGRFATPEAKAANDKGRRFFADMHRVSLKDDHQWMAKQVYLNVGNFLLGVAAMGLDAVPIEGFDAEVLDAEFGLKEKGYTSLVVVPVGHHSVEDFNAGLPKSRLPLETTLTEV

T1 sequence (A0R6D0 whole entry): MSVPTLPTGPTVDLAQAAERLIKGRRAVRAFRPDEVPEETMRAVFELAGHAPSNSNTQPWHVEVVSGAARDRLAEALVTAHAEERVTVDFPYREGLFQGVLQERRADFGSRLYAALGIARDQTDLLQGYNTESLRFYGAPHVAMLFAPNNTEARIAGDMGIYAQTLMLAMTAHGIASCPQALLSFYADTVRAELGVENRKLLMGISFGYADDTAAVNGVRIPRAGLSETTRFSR

## O=[N+]([O-])c1ccccc1 [compound 1, nitrobenzene]
[1]
  NADH oxidation, initial rates in microtiter plate; Michaelis-Menten fit: dividing by the rate measured for the unsubstituted parent compound: nitrobenzene
[2]
  NADH oxidation at 370 nm; Michaelis-Menten fit: dividing by the rate measured for the unsubstituted parent compound: nitrobenzene
